Literature values in patent US5238927A (priority 1992, dated 1993).

Conditions: in vivo

For `NC(=O)c1cc[n+](COC[n+]2ccccc2C=NO)cc1` [HI-6, 1-(2-hydroxyiminomethylpyridinium)-2-(4-carboxyamidopyridinium)-dimethyl ether dichloride], the “effectiveness as antidote in the treatment of organophosphorus toxin nerve poisoning” value is given as “most effective known antidote”.
